Literature values in US12102645B2, “Fluticasone furoate nasal preparation composition” (TOKO YAKUHIN KOGYO CO., LTD., priority 2018, dated 2024).

Solubility in water: very slightly soluble
SMILES: C[C@@H]1C[C@H]2[C@@H]3C[C@H](F)C4=CC(=O)C=C[C@]4(C)[C@@]3(F)[C@@H](O)C[C@]2(C)[C@@]1(OC(=O)c1ccco1)C(=O)SCF [Fluticasone furoate, 6α,9-difluoro-17β-[(fluoromethylsulfanyl)carbonyl]-11β-hydroxy-16α-methyl-3-oxoandrosta-1,4-dien-17α-yl furan-2-carboxylate]
